Laboratory results published in the supplement of paper PMC11061612.

Columns and labels:
Test in all cases: combination Emax (second highest fraction inhibited in the dose matrix, 72 h); higher = more inhibition; extreme values may be limits of the assay
[1] = test system: MDA-MB-231 (Breast Carcinoma)
Method in brief: (§1)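 Cell lines in DMEM/F12 or RPMI with 10% FBS were plated in 1536-well plates, held 24 hours at 37°C, 5% CO2, then given two-drug dose matrices for 72 hours (DMSO typically 0.2%). Viability was read by CellTiter-Glo 2.0 luminescence and scaled as inhibition from 0 (vehicle wells) to 1 (blank wells). Combination Emax is the second-highest inhibition in the matrix; Bliss excess is observed combination effect minus expected EA + EB − EA·EB, EA and EB being single-agent effects.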

[2] = test system: DMS-273 (Small Cell Lung Carcinoma)
Method in brief: as §1

[3] = test system: HPAC (Pancreatic Carcinoma)
Method in brief: as §1

[4] = test system: NCI-H1694 (Small Cell Lung Carcinoma)
Method in brief: as §1

[5] = test system: NCI-H2595 (Mesothelioma)
Method in brief: as §1

[6] = test system: TGBC24TKB (Biliary Tract Carcinoma)
Method in brief: as §1

[7] = test system: MDA-MB-157 (Breast Carcinoma)
Method in brief: as §1

[8] = test system: KM-H2 (Hodgkin's Lymphoma)
Method in brief: as §1

[9] = test system: DOV13 (Ovarian Carcinoma)
Method in brief: as §1

[10] = test system: COR-L95 (Small Cell Lung Carcinoma)
Method in brief: as §1

[11] = test system: NCI-H1781 (Lung Adenocarcinoma)
Method in brief: as §1

[12] = test system: SNU-C5 (Colorectal Carcinoma)
Method in brief: as §1

[13] = test system: OCI-AML2 (Acute Myeloid Leukemia)
Method in brief: as §1

[14] = test system: CTV-1 (T-Lymphoblastic Leukemia)
Method in brief: as §1

[15] = test system: TE-5 (Esophageal Squamous Cell Carcinoma)
Method in brief: as §1

[16] = test system: U-266 (Plasma Cell Myeloma)
Method in brief: as §1

[17] = test system: SW780 (Bladder Carcinoma)
Method in brief: as §1

[18] = test system: HT-29 (Colorectal Carcinoma)
Method in brief: as §1

[19] = test system: COR-L23 (Non-Small Cell Lung Carcinoma)
Method in brief: as §1

[20] = test system: SN12C (Kidney Carcinoma)
Method in brief: as §1

SMILES | combination Emax [1] | combination Emax [2] | combination Emax [3] | combination Emax [4] | combination Emax [5] | combination Emax [6] | combination Emax [7] | combination Emax [8] | combination Emax [9] | combination Emax [10] | combination Emax [11] | combination Emax [12] | combination Emax [13] | combination Emax [14] | combination Emax [15] | combination Emax [16] | combination Emax [17] | combination Emax [18] | combination Emax [19] | combination Emax [20]
CN(CCO)CC[C@H](CSc1ccccc1)Nc1ccc(S(=O)(=O)NC(=O)c2ccc(N3CCC([C@@H](O)c4ccccc4-c4ccc(Cl)cc4)CC3)cc2)cc1S(=O)(=O)C(F)(F)F [AZD4320] + CCN(CCO)CCCOc1ccc2c(Nc3cc(CC(=O)Nc4cccc(F)c4)[nH]n3)ncnc2c1 [AZD2811] (first compound max 1 µM, 7x7, partner max 1 µM) | 0.813 | 0.766 | 0.844 | 0.94 | 0.125 | 0.822 | 0.257 | 0.196 | 0.908 | 1 | 0.741 | 0.196 | 1 | 0.27 | 0.478 | 0.718 | 0.803 | 0.232 | 0.15 | 0.169
COc1nnc2ccc(N3CCC(c4ccc(OCCN5CCN(C)C(=O)[C@H]5C)cc4)CC3)nn12 [AZD5153] + C=CCn1c(=O)c2cnc(Nc3ccc(N4CCN(C)CC4)cc3)nc2n1-c1cccc(C(C)(C)O)n1 [AZD1775] (first compound max 1 µM, partner max 1 µM) | 0.612 | 0.847 | 0.735 | 0.714 | 0.371 | 0.826 | 0.636 | 0.943 | 0.826 | 0.433 | 0.478 | 0.682 | 1 | 0.996 | 0.383 | 0.637 | 0.429 | 0.868 | 0.68 | 0.165
CC(=O)Nc1cccc(-n2c(=O)n(C3CC3)c(=O)c3c(Nc4ccc(I)cc4F)n(C)c(=O)c(C)c32)c1 [Trametinib] + Cc1nc(-c2cn3c(n2)-c2ccc(-c4cnn(C(C)(C)C(N)=O)c4)cc2OCC3)n(C(C)C)n1 [Taselisib] (first compound max 1 µM, 7x7, partner max 10 µM) | 0.868 | 0.591 | 1 | 0.324 | 0.404 | 0.969 | 0.336 | 0.227 | 0.76 | 0.439 | 0.88 | 0.794 | 1 | 0.96 | 0.767 | 0.796 | 0.541 | 0.981 | 0.919 | 0.45
COc1cccc(OCCCN)c1-c1cc(Nc2cnc(C#N)cn2)n[nH]1 [Prexasertib] + CN(C)CCCOc1ccc(-c2ccc3ncc4c(c3c2)n(C2CCOCC2)c(=O)n4C)cn1 [AZD0156] (first compound max 1 µM, 7x7, partner max 1 µM) | 0.743 | 0.923 | 0.795 | 0.794 | 0.1 | 0.863 | 0.935 | 0.933 | 0.927 | 0.644 | 0.45 | 0.889 | 1 | 0.988 | 0.543 | 0.728 | 0.136 | 0.858 | 0.683 | 0.342
C[C@@H]1COCCN1c1cc(C2([S@](C)(=N)=O)CC2)nc(-c2ccnc3[nH]ccc23)n1 [AZD6738] + O=C(c1cc(Cc2n[nH]c(=O)c3ccccc23)ccc1F)N1CCN(C(=O)C2CC2)CC1 [Olaparib] (first compound max 10 µM, 7x7, partner max 10 µM) | 0.572 | 0.721 | 0.416 | 0.734 | 0.214 | 0.693 | 0.85 | 0.785 | 0.915 | 0.517 | 0.59 | 0.696 | 0.988 | 0.916 | 0.442 | 0.584 | 0.181 | 0.799 | 0.42 | 0.249
COc1cccc(OCCCN)c1-c1cc(Nc2cnc(C#N)cn2)n[nH]1 [Prexasertib] + C=CCn1c(=O)c2cnc(Nc3ccc(N4CCN(C)CC4)cc3)nc2n1-c1cccc(C(C)(C)O)n1 [AZD1775] (first compound max 1 µM, partner max 1 µM) | 0.9 | 0.984 | 0.792 | 0.932 | 0.307 | 0.896 | 0.969 | 0.962 | 0.971 | 0.736 | 0.736 | 0.886 | 1 | 1 | 0.625 | 0.77 | 0.303 | 0.844 | 0.652 | 0.608
CC1(C)CCC(CN2CCN(c3ccc(C(=O)NS(=O)(=O)c4ccc(NCC5CCOCC5)c([N+](=O)[O-])c4)c(Oc4cnc5[nH]ccc5c4)c3)CC2)=C(c2ccc(Cl)cc2)C1 [Venetoclax] + CN(C)CCCOc1ccc(-c2ccc3ncc4c(c3c2)n(C2CCOCC2)c(=O)n4C)cn1 [AZD0156] (first compound max 1 µM, 7x7, partner max 1 µM) | 0.267 | 0.355 | 0.26 | 0.14 | 0.177 | 0.268 | 0.596 | 0.206 | 0.326 | 0.535 | 0.277 | 0.185 | 0.993 | 0.0786 | 0.271 | 0.56 | 0.212 | 0.233 | 0.147 | 0.249
Cn1cnc2c(F)c(Nc3ccc(Br)cc3Cl)c(C(=O)NOCCO)cc21 [Selumetinib] + C=CCn1c(=O)c2cnc(Nc3ccc(N4CCN(C)CC4)cc3)nc2n1-c1cccc(C(C)(C)O)n1 [AZD1775] (first compound max 10 µM, partner max 1 µM) | 0.577 | 0.739 | 0.877 | 0.371 | 0.18 | 0.637 | 0.48 | 0.926 | 0.637 | 0.32 | 0.485 | 0.722 | 1 | 0.963 | 0.292 | 0.847 | 0.369 | 0.889 | 0.722 | 0.241
CC1(C)CCC(CN2CCN(c3ccc(C(=O)NS(=O)(=O)c4ccc(NCC5CCOCC5)c([N+](=O)[O-])c4)c(Oc4cnc5[nH]ccc5c4)c3)CC2)=C(c2ccc(Cl)cc2)C1 [Venetoclax] + C[C@@H](Nc1cc(F)cc(F)c1)c1cc(C(=O)N(C)C)cc2c(=O)cc(N3CCOCC3)oc12 [AZD8186] (first compound max 1 µM, 7x7, partner max 3 µM) | 0.137 | 0.482 | 0.211 | 0.376 | 0.163 | 0.169 | 0.546 | 0.139 | 0.306 | 0.782 | 0.28 | 0.166 | 1 | 0.372 | 0.375 | 0.471 | 0.163 | 0.132 | 0.054 | 0.174
Cc1cc2ncnn2cc1Nc1ncc2c(n1)n(C1CCOCC1)c(=O)n2C [AZD7648] + C[C@@H]1COCCN1C2=NC(=NC(=C2)C3(CC3)[S@](=N)(=O)C)C4=C5C=CNC5=NC=C4 [AZD6738] (first compound max 10 µM, 7x7, partner max 10 µM) | 0.605 | 0.788 | 0.672 | 0.659 | 0.208 | 0.786 | 0.881 | 0.774 | 0.838 | 0.621 | 0.443 | 0.751 | 0.986 | 0.864 | 0.565 | 0.508 | 0.303 | 0.808 | 0.577 | 0.313
COc1nnc2ccc(N3CCC(c4ccc(OCCN5CCN(C)C(=O)[C@H]5C)cc4)CC3)nn12 [AZD5153] + C[C@@H]1COCCN1C2=NC(=NC(=C2)C3(CC3)[S@](=N)(=O)C)C4=C5C=CNC5=NC=C4 [AZD6738] (first compound max 1 µM, 7x7, partner max 10 µM) | 0.81 | 0.883 | 0.71 | 0.921 | 0.461 | 0.855 | 0.913 | 0.89 | 0.923 | 0.547 | 0.491 | 0.816 | 1 | 0.987 | 0.503 | 0.412 | 0.465 | 0.863 | 0.772 | 0.204
CCN(CCO)CCCOc1ccc2c(Nc3cc(CC(=O)Nc4cccc(F)c4)[nH]n3)ncnc2c1 [AZD2811] + C[C@@H]1COCCN1C2=NC(=NC(=C2)C3(CC3)[S@](=N)(=O)C)C4=C5C=CNC5=NC=C4 [AZD6738] (first compound max 1 µM, 7x7, partner max 10 µM) | 0.667 | 0.771 | 0.583 | 0.73 | 0.21 | 0.746 | 0.894 | 0.766 | 0.873 | 0.533 | 0.775 | 0.755 | 0.984 | 0.84 | 0.476 | 0.426 | 0.334 | 0.829 | 0.511 | 0.212
Cc1cc2ncnn2cc1Nc1ncc2c(n1)n(C1CCOCC1)c(=O)n2C [AZD7648] + CN(C)CCCOc1ccc(-c2ccc3ncc4c(c3c2)n(C2CCOCC2)c(=O)n4C)cn1 [AZD0156] (first compound max 10 µM, 7x7, partner max 1 µM) | 0.42 | 0.411 | 0.169 | 0.165 | 0.208 | 0.357 | 0.209 | 0.158 | 0.325 | 0.233 | 0.352 | 0.337 | 0.367 | 0.262 | 0.41 | 0.226 | 0.18 | 0.247 | 0.0702 | 0.262
